Assay results reported in US12180159B2, “Activators of the unfolded protein response” (The Board of Trustees of the University of Illinois, priority 2018, dated 2024).
Several values for one entry are separate records, joined by “and”; a condition that tells them apart may be missing. Identical values can stand only once.

How the values were obtained:
[1] = test system: protein synthesis in Caov-3 cells; test: Inhibition of protein synthesis (35S-methionine incorporation); assay type: cell-based, human; conditions: 1,000 nM
Protocol: ERα positive Caov-3, human ovarian cancer cells, were treated for the indicated times with 1,000 nM BHPI or 1,000 nM (−)-105. Cells were briefly labeled with ^35S-methionine. Incorporation of labeled ^35S-methionine into protein was determined by trichloroacetic acid precipitation and trapping of precipitated protein, but not free amino acids, in small Whatman hardened ashless filters. After solubilizing the protein in the filters with base and neutralization with acid, the samples were counted in a liquid scintillation counter. Shown is the average (n≥3) percent inhibition of protein synthesis compared to the 0-time sample. The near quantitative inhibition of protein synthesis by (−)-105 is consistent with (−)-105 inducing lethal hyperactivation of the PERK arm of the UPR. Even non-growing cells are constantly degrading protein and making new proteins. Cells in which nearly all (>90%) of protein synthesis is inhibited cannot grow and will ultimately die.

TDG cells (T47DERαD538G) = test: Trypan Blue exclusion cell death assay, TDG cells; assay type: cell-based, human; conditions: dose response, 24 hours, TDG-Luc cells
Text: TRYPAN BLUE: For decades, viable cells have been measured by their ability to exclude the dye Trypan Blue. […] Dead cells, which have lost membrane integrity, take up the dye and are blue. Thus, the percentage of dead cells is the percentage of cells that are Trypan Blue positive out of the total cell population. Quantitative assessment of Trypan Blue uptake uses a cell counter from Fisher. Since the assay is instrument based, there is no observer bias in determining the percentage of Trypan Blue positive cells.
TRYPAN BLUE ASSAYS: Assays are performed on cells in 6 well plates: 300,000 cells are plated in each well of a 6 well plate in 3 ml of medium. After 24 hours, the DMSO vehicle or the indicated compound is added (in 1000th of the vol.) The cells incubated for an additional 24 hours, and then harvested in 0.25 ml of trypsin, followed after harvest by 0.75 ml of medium. The cells are spun down and resuspended in 100-200 μl of medium left that is over the cell pellet (resuspend cells by pipetting up and down a few times). Add 10 μl to 10 μl of trypan blue. Then 10 μl is inserted into the counting slide. After inserting the slide into the Fisher TC20 counting is automatic (these many cells are needed because an accurate ratio of Trypan Blue positive to Trypan Blue negative cells requires about 200 cells in the field the instrument counts).
The Trypan Blue cell death assay was used to evaluate the ability of the active enantiomer of C-105 [(−)-105] to kill ERα positive TDG-Luc cells. For all studies, 300,000 TDG-Luc cells/well in 10% FBS were plated in a 6 well plate in triplicate. 24 hours after plating, the indicated concentrations the active enantiomer of (−)-105, or BHPI (top) ICI, or OHT (Lower left) or (+)-105 (lower right) were added. After 24 hours, the cells were harvested, and the % dead cells was determined by automated Trypan Blue exclusion using the Countess II automated hemocytometer. Percentage of viable cells was calculated by doing 100−(Cell Death %). (n=3±SEM).
TDG cells were incubated for 24 hours with 75 nM of BHPI or 75 nM of each of the indicated test compounds: 4, 6 and (±)-105 (enantiomers not separated). Cell death was determined using the instrument-based Trypan Blue exclusion assay. Structures are in the Synthesis section. […] (n=3±SEM).

[2] = test system: TYS-Luc (T47DERαY537S-Luc human breast cancer cells) orthotopic tumors; test: Orthotopic TYS-Luc mouse xenograft, bioluminescent imaging (BLI) of tumor flux; assay type: in vivo
Protocol: In a treatment and vehicle-controlled mouse tumor study, human breast cancer cells were engineered to contain both the lethal ERαY537S mutation found in metastatic breast cancer, and the gene for firefly luciferase—when the appropriate chemical is added, the firefly luciferase breaks down the chemical and light is produced. Using a sensitive detector called an imaging system, this allows us to image the tumors inside live mice. This is called bioluminescent imaging, or BLI. Large tumors were allowed to form. Then (−)-105 was injected daily under the skin for three weeks. Using the imaging system, the effect of (−)-105 on the tumors was monitored. At the same time the effect of the vehicle in which (−)-105 was dissolved on tumors was also monitored.
A study was performed to determine what happens after stopping treatment with (−)-105 (Table 2). The study was designed to show whether the micro-tumors would remain dormant, or whether they would regrow. At the end of the three-week treatment, there is residual material that gives off a tiny amount of light which are termed “micro-tumors”. Based on sensitivity of the imaging system, it is believed these micro-tumors contain anywhere from 0-˜1,000 cancer cells; the micro-tumors will not be visible to the naked eye. Seeing them requires the powerful imaging system, or a microscope. To test whether these cells are either dead, or no longer dividing and are dormant, the cells two and 4 weeks after they stopped receiving any treatment were imaged. This study tested whether growing cancer cells have been eradicated; this study continues.
In a 3-week study, large breast tumors were present at start of treatment and regressed as shown in the image of FIG. 17. The study was performed using Orthotopic TYS-Luc (injected cells: T47DERα Y537-Luc human breast cancer cells), e.g., the most lethal ERα mutation in human in metastatic breast cancer. Tumors were grown in NSG mice. Further details are provided in the Examples.
Experimental Details of the Xenografts: TYS-Luc cells (5,000,000 cells in Matrigel) were injected into the upper mammary fat pad of ovariectomized female NSG (SCID) mice (Jackson labs). After 10 weeks, on day 0, large tumors (size range: 100-600 mm^3) were present. Mice were treated with the vehicle used to dissolve (−)-105, or (−)-105 at 40 mg/kd daily by subcutaneous injection. For bioluminescent imaging (BLI) of the tumors, the mice were anesthetized with isoflurane and Lucerfin, the luciferase substrate, was injected into the mice. Flux, the total member of light photons hitting the detector in one second was measured using an IVIS ([…]). Shown is the flux (in millions of units per second) for the entire area containing each tumor, or an equivalent area when the tumor is tiny or undetectable and the percent change in tumor size at each time a measurement was taken (day 0, day 3, week 1, week 2, week 3). Then treatment was stopped, and another measurement was taken two weeks letter. Note that tumors were also measured with calipers. […] After three days all the (−)-105 tumors has declined to undetectable using calipers.

[3] = test system: (BHPI-sensitive) parental T47D cells; test: Growth of parental T47D cells (MTS); assay type: cell-based, human; conditions: 100 nM and 1 μM, 4 days
Protocol: ERα containing T47D human breast cancer cells able to survive in 1 μM BHPI were selected by clonal outgrowth. The effect of 100 nM and 1 μM BHPI and (−)-105 on growth of the (BHPI-sensitive) parental T47D cells and partially BHPI-resistant T47D clones 1, 3, 8, and 11 was evaluated. 4,000 cells/well were plated. Cell number was determined by MTS assay from a standard curve of absorbance versus cell number. […] Thus, in 4 days (−)-105 killed some, but not all, of the resistant cells.

[4] = after 3 days of treatment, all 5 mice

With O=C1Nc2c(C(F)(F)F)cccc2C1(c1ccc(O)cc1)c1ccc(OC(F)(F)F)cc1 (single isomer, unassigned; (-)) [(−)-105, 3-(4-hydroxyphenyl)-3-(4-(trifluoromethoxy)phenyl)-7-(trifluoromethyl)indolin-2-one] the “inhibition of the synthesis of new proteins” value [1] was “near-quantitative, inhibition”, the “killing of TDG-Luc cells” value (TDG cells (T47DERαD538G)) was “superior to BHPI” and the “micro-tumor regrowth after stopping treatment” value ([2]; 4 weeks after stopping treatment) was “NO “MICRO-TUMOR” REGROWTH”. For the same molecule, the “tumor shrinkage (regression) by BLI, 4 of the 5 tumors” value ([2]; after 3 days of treatment, 4 of 5 tumors) was “more than 99.9%”, the “tumor shrinkage (regression) by BLI, all five tumors” value [2, 4] was “more than 99%” and the “tumor size using calipers” value [2, 4] was “undetectable”. For the same molecule, the “tumor shrinkage by BLI, 3 of the remaining 4 mice” value ([2]; after three weeks) was “more than 99.9%”, the “tumor change in one mouse (complete regression)” value ([2]; after three weeks, one mouse) was −100% and the “Day 0 Flux” value ([2]; per mouse, day 0 (start of treatment, baseline)) was 2,130 millions of photons/sec and 277 millions of photons/sec and 72.6 millions of photons/sec and 1,880 millions of photons/sec and 1,650 millions of photons/sec. The “Day 14 % Change in Tumor Flux” value ([2]; per mouse, day 14 vs day 0) was 99.66%, the “health of the treated mice / toxicity” value ([2]; three-week treatment) was “No toxicity” and the “micro-tumor regrowth after stopping treatment” value ([2]; two weeks after treatment was stopped) was “the microtumors had not started growing again”. For the same molecule, the “tumor size using calipers” value ([2]; within seven days, all 5 tumors) was “undetectable” and the “growth / killing of parental T47D cells” value [3] was “killed all the T47D cells”.
